# Like-named read-outs stand apart in the source and are kept apart here.
# Legend:
# Assay type in all cases: in vivo
# Laodelphax striatella = assay: Pest control test of Laodelphax striatella, foliar spray on rice seedling; conditions: Laodelphax striatellus, foliar
# Experimental: Test Example 6 Pest Control Test of Laodelphax striatella
# A drug solution of the compound of the present invention at a predetermined concentration, which had been prepared so as to be a 50% acetone water (0.05% Tween20 available), was foliar sprayed to a rice seedling in pot culture. After an air drying process, second instar larvae were released thereto. Thereafter, the larvae were left to stand in a thermostatic chamber (16 hours of light period-8 hours of dark period) at 25° C. […] Test in duplicate.
# (§1) Mortality of larvae(%)={number of dead larvae/(number of survived larvae+number of dead larvae)}×100
# Oulema oryzae = assay: Pest control test of Oulema oryzae, soil irrigation treatment; conditions: 0.05 mg/seedling, three days after release
# Experimental: Test Example 13 Pest Control Test of Oulema oryzae
# (§2) A rice seedling in pot culture was subjected to soil irrigation treatment with a drug solution of the compound of the present invention at a predetermined concentration, which had been prepared so as to be a 10% acetone water. Three days after the treatment, two second instar larvae of Oulema oryzae were each released thereto. Thereafter, the larvae were left to stand in a thermostatic chamber (16 hours of light period-8 hours of dark period) at 25° C. […] The test was performed in duplicate.
# as §1
# Nilaparvata lugens = assay: Pest control test of Nilaparvata lugens, soil irrigation treatment; conditions: soil irrigation treatment
# Experimental: Test Example 12 Pest Control Test of Nilaparvata lugens
# as §2, with “ten” for “two”, “Nilaparvata lugens” for “Oulema oryzae”
# as §1
# [1] = test system: susceptible populations of Laodelphax striatella; assay: Soil irrigation test, susceptible populations of Laodelphax striatella; conditions: Rate 0.005 mg/pot
# Experimental: as §2, with “Three days after the treatment, two second instar larvae of Oulema oryzae were each released thereto.” left out
# as §1
# Further, for comparison, the test against a populations of Laodelphax striatella which is highly susceptible to fipronil was performed by the same method as described above, and the results thereof are shown in Table 45.
# In addition, for the origin of test pests, bugs collected within the Kumamoto prefecture in 2006 as the drug resistant Laodelphax striatella, and bugs successively reared indoors for a long time as the susceptible populations of Laodelphax striatella were used.
# [2] = test system: Frankliniella occidentalis; assay: Pest control test of Frankliniella occidentalis, kidney bean leaf disk foliar spray; conditions: Frankliniella occidentalis, foliar
# How it was run: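 Kidney bean leaf disks (2.8 cm) sprayed with compound in 50% acetone water with 0.05% Tween20, air-dried, then infested with first instar larvae. Held at 25° C, 16 h light/8 h dark; larval mortality (%) calculated from dead versus total larvae, in duplicate.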
# Musca domestica = assay: Pest control test of Musca domestica adults, sucrose pledget; conditions: 50 ppm in 40% sucrose liquid; four days after release
# Experimental: Test Example 21 Pest Control Test of Musca domestica
# A drug solution of the compound of the present invention, which had been adjusted to be 50 ppm with a 40% sucrose liquid, was adsorbed on a pledget, and the pledget was put into a vial. Two adults reared indoors were released thereto. Thereafter, the adults were left to stand indoors at room temperature of 25° C. […] When two adults were all agonized in death, it was judged to be effective.
# [3] = test system: imidacloprid susceptible populations of Nilaparvata lugens; assay: Soil irrigation test, imidacloprid susceptible populations of Nilaparvata lugens
# How it was run: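 Potted rice seedlings soil-irrigated with compound in 10% acetone water at set concentrations; larvae held at 25 °C, 16 h light/8 h dark. Mortality % = dead/(dead + survivors) ×100, duplicate. Susceptible population: Kagoshima-collected, long-term lab-reared.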
# [4] = test system: Haemaphysalis longicornis; assay: Pest control test of Haemaphysalis longicornis on the body surface of a dog; conditions: 72 h, read-out: mortality of mites
# Experimental: Test Example 25 Pest Control Test of Haemaphysalis longicornis
# Three petri dishes with a diameter of 9 cm and a height of 1 cm were adhered to the back of a dog. Compound 1-20 of the present invention was dissolved in ethanol so as to be 5.35 mg/mL, and the mixture was added dropwise to the body surface of the dog in the petri dish. The petri dish was sufficiently dried, and then thirty young mites of Haemaphysalis longicornis were released thereto. Each dog was housed in a cage and reared under conditions of 10 hours of light period and 14 hours of dark period at 23° C. Three days after the release, the petri dishes were detached therefrom to measure the numbers of living and dead mites and blood-sucking individuals of young mites, and the mortality of mites was calculated according to the following equation.
# Mortality of mites(%)={number of dead mites/(number of survived mites+number of dead mites)}×100
# [5] = test system: Nilaparvata lugens exhibiting drug resistance to imidacloprid; conditions: soil irrigation
# How it was run: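 Imidacloprid-resistant Nilaparvata lugens collected outdoors in Kumamoto (2007); an indoor-reared Kagoshima population served as the susceptible strain. Potted rice seedlings soil-drenched with compound in 10% acetone water at set concentrations; larvae held at 25° C, 16 h light/8 h dark. Mortality (%) = dead/(survived + dead) × 100, tested in duplicate.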
# [6] = test system: Sogatella furcifera exhibiting drug resistance to fipronil; assay: Soil irrigation test, Sogatella furcifera exhibiting drug resistance to fipronil
# Experimental: Test Example 19 Pest Control Test of Sogatella furcifera
# as §2, with “Three days after the treatment, two second instar larvae of Oulema oryzae were each released thereto.” left out
# as §1
# In addition, for the origin of test pests, bugs collected within the city of Odawara in 2010 as the drug resistant Sogatella furcifera, and bugs collected within the city of Chigasaki in 1970 and then successively reared indoors for a long time as the susceptible populations of Sogatella furcifera were used.
# [7] = 72 h, read-out: mortality of larvae
# [8] = read-out: % Mortality, Test Example7 Frankliniella occidentalis
structure (smiles),measurement,setting,value
"FC(F)(F)C(=S)/N=c1\ccccn1Cc1ccc(Cl)nc1 [Compound 1-20, N-[1-((6-chloropyridin-3-yl)methyl)pyridin-2(1H)-ylidene]-2,2,2-trifluoroethanethioamide]",mortality at 1.25 ppm,"Laodelphax striatella; 144 h, read-out: mortality of larvae",≥ 80%
same,mortality at 1.25 ppm,"Laodelphax striatella; read-out: % Mortality, Test Example6 Laodelphax striatella",95%
same,mortality of larvae,Oulema oryzae,≥ 80%
same,"% Mortality, Test Example 12 Nilaparvata lugens",Nilaparvata lugens; 0.005 mg/pot,80%
same,"% Mortality, Test Example 12 Nilaparvata lugens",Nilaparvata lugens; 0.01 mg/pot,85%
same,"% Mortality, Test Example 12 Nilaparvata lugens",Nilaparvata lugens; 0.05 mg/pot,100%
same,"Insecticidal effects against Laodelphax striatella (mortality of larvae %), Susceptible populations six days after the treatment",[1],85%
same,mortality at 100 ppm,[2]; [7],≥ 80%
same,mortality at 500 ppm,[2]; [7],≥ 80%
same,mortality at 20 ppm,[2]; [8],50%
same,mortality at 100 ppm,[2]; [8],80%
same,activity against adults (effective when two adults were all agonized in death),Musca domestica,all the adults are agonized in death
same,"Insecticidal effects against Nilaparvata lugens (mortality of larvae %), Susceptible populations three days after the treatment",[3]; Rate 0.01 mg/pot,95%
same,"Insecticidal effects against Nilaparvata lugens (mortality of larvae %), Susceptible populations three days after the treatment",[3]; Rate 0.05 mg/pot,96%
same,mortality at 5350 µg/mL,[4],100%
same,insecticidal effects against drug resistant Nilaparvata lugens,[5]; imidacloprid-resistant,high insecticidal effects
same,mortality of larvae against drug resistant populations compared with susceptible populations of Nilaparvata lugens,[5]; imidacloprid-resistant vs susceptible,equivalent mortality of larvae
same,"Insecticidal effects against Sogatella furcifera (mortality of larvae %), Drug resistant populations six days after the treatment",[6]; Rate 0.005 mg/pot,53%
same,"Insecticidal effects against Sogatella furcifera (mortality of larvae %), Drug resistant populations six days after the treatment",[6]; Rate 0.01 mg/pot,88%
same,insecticidal effects against drug resistant Sogatella furcifera,[6]; fipronil-resistant,high insecticidal effects
same,mortality of larvae against drug resistant populations compared with susceptible populations of Sogatella furcifera,[6]; fipronil-resistant vs susceptible,equivalent mortality of larvae
